Data as given in PubChem BioAssay AID1963960 (Molecular Pharmacology Branch, DTP, NCI, 2024).

System: MDA-MB-468 spheroids with HUVEC/MSC, viability
Experiment: Anticancer human tumor MDA-MB-468 cell line growth inhibition [PI3K];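 also: spheroids exposed to agents for seven days before readout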;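 as to viability, T/C: 100% = DMSO vehicle control viability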
Conditions: for IC50: curve of first compound; for viability, T/C: stronger effect = lower value
Outline: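 Spheroid viability read-out. Co-cultures contained the tumor line plus HUVEC and human MSCs. Each agent was paired with a PI3K inhibitor (inavolisib, alpelisib, duvelisib, copanlisib) across half-log dilutions starting at clinical Cmax, or at 10 microM when Cmax was unknown.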

[1] = second compound 0.0316 µM, first compound 0.0316 µM
[2] = second compound 0.0316 µM, first compound 0.1 µM
[3] = second compound 0.0316 µM, first compound 0.316 µM
[4] = second compound 0.0316 µM, first compound 1 µM
[5] = second compound 0.0316 µM, first compound 3.16 µM
[6] = second compound 0.0316 µM, first compound 10 µM
[7] = second compound 0.1 µM, first compound 0.0316 µM
[8] = second compound 0.1 µM, first compound 0.1 µM
[9] = second compound 0.1 µM, first compound 0.316 µM
[10] = second compound 0.1 µM, first compound 1 µM
[11] = second compound 0.1 µM, first compound 3.16 µM
[12] = second compound 0.1 µM, first compound 10 µM
[13] = second compound 0.316 µM, first compound 0.0316 µM
[14] = second compound 0.316 µM, first compound 0.1 µM
[15] = second compound 0.316 µM, first compound 0.316 µM
[16] = second compound 0.316 µM, first compound 1 µM
[17] = second compound 0.316 µM, first compound 3.16 µM
[18] = second compound 0.316 µM, first compound 10 µM
[19] = second compound 1 µM, first compound 0.0316 µM
[20] = second compound 1 µM, first compound 0.1 µM
[21] = second compound 1 µM, first compound 0.316 µM
[22] = second compound 1 µM, first compound 1 µM
[23] = second compound 1 µM, first compound 3.16 µM
[24] = second compound 1 µM, first compound 10 µM
[25] = second compound 3.16 µM, first compound 0.0316 µM
[26] = second compound 3.16 µM, first compound 0.1 µM
[27] = second compound 3.16 µM, first compound 0.316 µM
[28] = second compound 3.16 µM, first compound 1 µM
[29] = second compound 3.16 µM, first compound 3.16 µM
[30] = second compound 3.16 µM, first compound 10 µM
[31] = second compound 10 µM, first compound 0.0316 µM
[32] = second compound 10 µM, first compound 0.1 µM
[33] = second compound 10 µM, first compound 0.316 µM
[34] = second compound 10 µM, first compound 1 µM
[35] = second compound 10 µM, first compound 3.16 µM
[36] = second compound 10 µM, first compound 10 µM

SMILES: C#Cc1c(F)ccc2cc(O)cc(-c3ncc4c(N5CC6CCC(C5)N6)nc(OCC56CCCN5CC(F)C6)nc4c3F)c12 (stereo not given) + Cc1nc(NC(=O)N2CCCC2C(N)=O)sc1-c1ccnc(C(C)(C)C(F)(F)F)c1
- IC50 (second compound 0.0316 µM): > 10 µM
- IC50 (second compound 0.1 µM): 7.36 µM
- IC50 (second compound 0.316 µM): 5.64 µM
- IC50 (second compound 1 µM): 3.09 µM
- IC50 (second compound 3.16 µM): 0.96 µM
- IC50 (second compound 10 µM): < 0.0316 µM
- viability, T/C [1]: 83.2%
- viability, T/C [2]: 84.4%
- viability, T/C [3]: 80.2%
- viability, T/C [4]: 106%
- viability, T/C [5]: 100%
- viability, T/C [6]: 52.3%
- viability, T/C [7]: 91.1%
- viability, T/C [8]: 89.1%
- viability, T/C [9]: 88.9%
- viability, T/C [10]: 101%
- viability, T/C [11]: 79.9%
- viability, T/C [12]: 39.2%
- viability, T/C [13]: 92.4%
- viability, T/C [14]: 85.6%
- viability, T/C [15]: 69.9%
- viability, T/C [16]: 80.9%
- viability, T/C [17]: 75.6%
- viability, T/C [18]: 24.7%
- viability, T/C [19]: 92.4%
- viability, T/C [20]: 81.8%
- viability, T/C [21]: 71.8%
- viability, T/C [22]: 83.3%
- viability, T/C [23]: 49.4%
- viability, T/C [24]: 15.8%
- viability, T/C [25]: 80.5%
- viability, T/C [26]: 69.3%
- viability, T/C [27]: 53.4%
- viability, T/C [28]: 53.4%
- viability, T/C [29]: 35.4%
- viability, T/C [30]: 3.3%
- viability, T/C [31]: 42.2%
- viability, T/C [32]: 26.6%
- viability, T/C [33]: 22.3%
- viability, T/C [34]: 18.9%
- viability, T/C [35]: 7.98%
- viability, T/C [36]: 0.65%

SMILES: C=CC(=O)N1CCN(c2nc(=O)n(-c3c(C)ccnc3C(C)C)c3nc(-c4c(O)cccc4F)c(F)cc23)C(C)C1 (stereo not given) + Cc1nc(NC(=O)N2CCCC2C(N)=O)sc1-c1ccnc(C(C)(C)C(F)(F)F)c1
- IC50 (second compound 0.0316 µM): > 10 µM
- IC50 (second compound 0.1 µM): > 10 µM
- IC50 (second compound 0.316 µM): > 10 µM
- IC50 (second compound 1 µM): 6.13 µM
- IC50 (second compound 3.16 µM): 1.26 µM
- IC50 (second compound 10 µM): < 0.0316 µM
- viability, T/C [1]: 94.9%
- viability, T/C [2]: 92.7%
- viability, T/C [3]: 82.9%
- viability, T/C [4]: 131%
- viability, T/C [5]: 113%
- viability, T/C [6]: 67.8%
- viability, T/C [7]: 93.2%
- viability, T/C [8]: 100%
- viability, T/C [9]: 97.1%
- viability, T/C [10]: 122%
- viability, T/C [11]: 95.9%
- viability, T/C [12]: 63.6%
- viability, T/C [13]: 101%
- viability, T/C [14]: 100%
- viability, T/C [15]: 88.1%
- viability, T/C [16]: 91.6%
- viability, T/C [17]: 86.2%
- viability, T/C [18]: 57.5%
- viability, T/C [19]: 77.4%
- viability, T/C [20]: 80.9%
- viability, T/C [21]: 78.1%
- viability, T/C [22]: 88.3%
- viability, T/C [23]: 56.9%
- viability, T/C [24]: 44.9%
- viability, T/C [25]: 82.7%
- viability, T/C [26]: 63.7%
- viability, T/C [27]: 55.8%
- viability, T/C [28]: 60.8%
- viability, T/C [29]: 40.9%
- viability, T/C [30]: 37.2%
- viability, T/C [31]: 43.8%
- viability, T/C [32]: 31.2%
- viability, T/C [33]: 34.3%
- viability, T/C [34]: 25.6%
- viability, T/C [35]: 21.9%
- viability, T/C [36]: 15.8%

SMILES: CC(Cn1ccc(-c2ccc(C#N)c(Cl)c2)n1)NC(=O)c1cc(C(C)O)[nH]n1 (stereo not given) + Cc1nc(NC(=O)N2CCCC2C(N)=O)sc1-c1ccnc(C(C)(C)C(F)(F)F)c1
- IC50 (second compound 0.0316 µM): > 10 µM
- IC50 (second compound 0.1 µM): > 10 µM
- IC50 (second compound 0.316 µM): > 10 µM
- IC50 (second compound 1 µM): > 10 µM
- IC50 (second compound 3.16 µM): > 10 µM
- IC50 (second compound 10 µM): < 0.0316 µM
- viability, T/C [1]: 82.4%
- viability, T/C [2]: 93%
- viability, T/C [3]: 88.3%
- viability, T/C [4]: 111%
- viability, T/C [5]: 72%
- viability, T/C [6]: 50.6%
- viability, T/C [7]: 89.4%
- viability, T/C [8]: 93.9%
- viability, T/C [9]: 79.9%
- viability, T/C [10]: 99%
- viability, T/C [11]: 64.6%
- viability, T/C [12]: 55.7%
- viability, T/C [13]: 88%
- viability, T/C [14]: 86.5%
- viability, T/C [15]: 80.6%
- viability, T/C [16]: 92.2%
- viability, T/C [17]: 61.5%
- viability, T/C [18]: 54%
- viability, T/C [19]: 86.3%
- viability, T/C [20]: 71.1%
- viability, T/C [21]: 64.1%
- viability, T/C [22]: 70.4%
- viability, T/C [23]: 61.2%
- viability, T/C [24]: 50.5%
- viability, T/C [25]: 74.4%
- viability, T/C [26]: 54.2%
- viability, T/C [27]: 64.4%
- viability, T/C [28]: 61.3%
- viability, T/C [29]: 53.4%
- viability, T/C [30]: 49.2%
- viability, T/C [31]: 33.4%
- viability, T/C [32]: 28.8%
- viability, T/C [33]: 28.4%
- viability, T/C [34]: 29.9%
- viability, T/C [35]: 28.3%
- viability, T/C [36]: 21.5%

SMILES: CC1(C)CCC(Nc2ncc(C(F)(F)F)c(-c3c[nH]c4c(P(C)(C)=O)c(C#N)ccc34)n2)CN1 (stereo not given) + Cc1nc(NC(=O)N2CCCC2C(N)=O)sc1-c1ccnc(C(C)(C)C(F)(F)F)c1
- IC50 (second compound 0.0316 µM): < 0.0316 µM
- IC50 (second compound 0.1 µM): < 0.0316 µM
- IC50 (second compound 0.316 µM): < 0.0316 µM
- IC50 (second compound 1 µM): < 0.0316 µM
- IC50 (second compound 3.16 µM): < 0.0316 µM
- IC50 (second compound 10 µM): < 0.0316 µM
- viability, T/C [1]: 12.9%
- viability, T/C [2]: 13.4%
- viability, T/C [3]: 10.2%
- viability, T/C [4]: 12.3%
- viability, T/C [5]: 10.3%
- viability, T/C [6]: 1.66%
- viability, T/C [7]: 13.4%
- viability, T/C [8]: 13.6%
- viability, T/C [9]: 11%
- viability, T/C [10]: 11.7%
- viability, T/C [11]: 9.67%
- viability, T/C [12]: 1.49%
- viability, T/C [13]: 16.6%
- viability, T/C [14]: 10.6%
- viability, T/C [15]: 9.57%
- viability, T/C [16]: 11.6%
- viability, T/C [17]: 9.4%
- viability, T/C [18]: 1.34%
- viability, T/C [19]: 13.8%
- viability, T/C [20]: 10.9%
- viability, T/C [21]: 9.4%
- viability, T/C [22]: 10.7%
- viability, T/C [23]: 7.46%
- viability, T/C [24]: 1.27%
- viability, T/C [25]: 15.4%
- viability, T/C [26]: 10.6%
- viability, T/C [27]: 9.84%
- viability, T/C [28]: 9.67%
- viability, T/C [29]: 5.93%
- viability, T/C [30]: 1.32%
- viability, T/C [31]: 11%
- viability, T/C [32]: 7.92%
- viability, T/C [33]: 8.97%
- viability, T/C [34]: 6.88%
- viability, T/C [35]: 4.2%
- viability, T/C [36]: 0.98%

SMILES: Cn1nccc1Nc1nccc(-c2ccn(C(CO)c3ccc(Cl)c(F)c3)c(=O)c2)n1 (stereo not given) + Cc1nc(NC(=O)N2CCCC2C(N)=O)sc1-c1ccnc(C(C)(C)C(F)(F)F)c1
- IC50 (second compound 0.0316 µM): > 10 µM
- IC50 (second compound 0.1 µM): > 10 µM
- IC50 (second compound 0.316 µM): > 10 µM
- IC50 (second compound 1 µM): > 10 µM
- IC50 (second compound 3.16 µM): 1.6 µM
- IC50 (second compound 10 µM): < 0.0316 µM
- viability, T/C [1]: 88.7%
- viability, T/C [2]: 85.4%
- viability, T/C [3]: 84%
- viability, T/C [4]: 116%
- viability, T/C [5]: 107%
- viability, T/C [6]: 63.3%
- viability, T/C [7]: 92.2%
- viability, T/C [8]: 94.9%
- viability, T/C [9]: 81.7%
- viability, T/C [10]: 93.3%
- viability, T/C [11]: 113%
- viability, T/C [12]: 53.8%
- viability, T/C [13]: 103%
- viability, T/C [14]: 112%
- viability, T/C [15]: 95.9%
- viability, T/C [16]: 109%
- viability, T/C [17]: 61.1%
- viability, T/C [18]: 63.8%
- viability, T/C [19]: 81.3%
- viability, T/C [20]: 75.6%
- viability, T/C [21]: 80.4%
- viability, T/C [22]: 67.3%
- viability, T/C [23]: 62.9%
- viability, T/C [24]: 53.9%
- viability, T/C [25]: 82.3%
- viability, T/C [26]: 64.1%
- viability, T/C [27]: 63.4%
- viability, T/C [28]: 59.7%
- viability, T/C [29]: 42.3%
- viability, T/C [30]: 32.3%
- viability, T/C [31]: 39.6%
- viability, T/C [32]: 24.8%
- viability, T/C [33]: 29.6%
- viability, T/C [34]: 20.2%
- viability, T/C [35]: 17.6%
- viability, T/C [36]: 14.5%
